The supplement of paper PMC10307832

Columns and labels:
Assay in all cases: relative viability (nuclei count vs DMSO), 5 days (fraction); higher = more cells survive
CX-5461 + Linsitinib = compound: Cc1cnc(CNC(=O)c2c(=O)c3ccc(N4CCCN(C)CC4)nc3n3c2sc2ccccc23)cn1 [CX-5461] + C[C@]1(O)C[C@@H](c2nc(-c3ccc4ccc(-c5ccccc5)nc4c3)c3c(N)nccn32)C1 [Linsitinib] (partner 1 µM)
In short: (§1)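 Each reported value is a median over duplicate plates. It expresses relative viability: treated-well nuclei count divided by vehicle-well nuclei count. Lung cancer cell lines in 1536-well plates were dosed by pin tool a day after seeding, alone with one drug or with a fixed anchor-drug dose plus five library-drug doses (not always all listed) in √10 steps, and nuclei were counted after 5 days.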

IMD-0354 + Crizotinib = compound: O=C(Nc1cc(C(F)(F)F)cc(C(F)(F)F)c1)c1cc(Cl)ccc1O [IMD-0354] + C[C@@H](Oc1cc(-c2cnn(C3CCNCC3)c2)cnc1N)c1c(Cl)ccc(F)c1Cl [Crizotinib] (partner 1 µM)
In short: as §1

IMD-0354 + Pemetrexed = compound: O=C(Nc1cc(C(F)(F)F)cc(C(F)(F)F)c1)c1cc(Cl)ccc1O [IMD-0354] + Nc1nc2[nH]cc(CCc3ccc(C(=O)N[C@@H](CCC(=O)O)C(=O)O)cc3)c2c(=O)[nH]1 [Pemetrexed] (partner 0.2 µM)
In short: as §1

IMD-0354 + Olaparib = compound: O=C(Nc1cc(C(F)(F)F)cc(C(F)(F)F)c1)c1cc(Cl)ccc1O [IMD-0354] + O=C(c1cc(Cc2n[nH]c(=O)c3ccccc23)ccc1F)N1CCN(C(=O)C2CC2)CC1 [Olaparib] (partner 8 µM)
In short: as §1

Row | Cell Line | relative viability (CX-5461 + Linsitinib; first compound 0.01 µM) | relative viability (CX-5461 + Linsitinib; first compound 0.03162 µM) | relative viability (CX-5461 + Linsitinib; first compound 0.1 µM) | relative viability (CX-5461 + Linsitinib; first compound 1 µM) | relative viability (IMD-0354 + Crizotinib; first compound 0.04 µM) | relative viability (IMD-0354 + Crizotinib; first compound 0.1265 µM) | relative viability (IMD-0354 + Crizotinib; first compound 0.4 µM) | relative viability (IMD-0354 + Crizotinib; first compound 1.265 µM) | relative viability (IMD-0354 + Crizotinib; first compound 4 µM) | relative viability (IMD-0354 + Pemetrexed; first compound 0.04 µM) | relative viability (IMD-0354 + Pemetrexed; first compound 0.1265 µM) | relative viability (IMD-0354 + Pemetrexed; first compound 0.4 µM) | relative viability (IMD-0354 + Pemetrexed; first compound 1.265 µM) | relative viability (IMD-0354 + Pemetrexed; first compound 4 µM) | relative viability (IMD-0354 + Olaparib; first compound 0.04 µM) | relative viability (IMD-0354 + Olaparib; first compound 0.1265 µM) | relative viability (IMD-0354 + Olaparib; first compound 0.4 µM) | relative viability (IMD-0354 + Olaparib; first compound 1.265 µM) | relative viability (IMD-0354 + Olaparib; first compound 4 µM) | relative viability (CX-5461 + Linsitinib; first compound 0.3162 µM)
1 | A-427 | 1.19 | 1.11 | 1.15 | 1.08 | 0.877 | 0.793 | 0.519 | 0.185 | 0.139 | 1.08 | 0.982 | 0.531 | 0.157 | 0.169 | 0.847 | 0.809 | 0.494 | 0.128 | 0.15 | –
2 | NCI-H2347 | 0.963 | 1.03 | 1.04 | 0.795 | 0.752 | 0.654 | 0.62 | 0.395 | 0.365 | 0.387 | 0.435 | 0.373 | 0.365 | 0.27 | 0.606 | 0.64 | 0.49 | 0.377 | 0.265 | 0.582
3 | NCI-H1355 | 0.859 | 0.845 | 0.893 | 0.787 | 1.29 | 1.04 | 0.956 | 0.97 | 0.242 | 1.07 | 1.1 | 0.673 | 0.527 | 0.216 | 0.663 | 0.769 | 0.452 | 0.198 | 0.175 | 0.838
4 | SK-MES-1 | 1.16 | 1.12 | 1.1 | 0.999 | 1.03 | 1.08 | 0.559 | 0.721 | 0.252 | 1.16 | 1.06 | 0.466 | 0.349 | 0.187 | 0.894 | 0.643 | 0.312 | 0.19 | 0.226 | 1.11
5 | PC-3 [JPC-3] | 0.937 | 0.885 | 0.933 | 0.918 | 1.08 | 1.01 | 0.601 | 0.419 | 0.18 | 1.42 | 1 | 1.03 | 0.305 | 0.405 | 1.25 | 1.16 | 0.839 | 0.374 | 0.38 | 0.936
6 | NCI-H2228 | 0.736 | 0.975 | 0.416 | 0.282 | 0.389 | 0.442 | 0.405 | 0.179 | 0.22 | 0.379 | 0.37 | 0.292 | 0.22 | 0.125 | 0.888 | 0.586 | 0.482 | 0.274 | 0.172 | 0.718
7 | HOP-62 | 1.08 | 0.813 | 0.922 | 0.997 | 0.999 | 1.09 | 0.926 | 0.546 | 0.168 | 0.348 | 0.308 | 0.268 | 0.141 | 0.0739 | 0.262 | 0.413 | 0.347 | 0.15 | 0.0835 | 0.858
8 | HARA | 0.953 | 1.04 | 0.98 | 0.966 | 1.05 | 0.921 | 0.53 | 0.158 | 0.208 | 0.318 | 0.271 | 0.207 | 0.202 | 0.151 | 0.455 | 0.697 | 0.935 | 0.167 | 0.311 | 0.772
